From patent US20070128217A1 (priority 2003, published 2007)

Tests used:
[1] = tested on: rabbit serum obtained by immunizing a rabbit with the SARS-CoV strain Frankfurt 1; type: binding; design: Binding of a rabbit serum to linear peptides / Binding of a rabbit serum to looped peptides / Rabbit serum linear peptides / Rabbit serum looped peptides / Binding of a rabbit serum to linear peptides of protein N of SARS-CoV Urbani (Rabbit serum linear peptides) / Binding of a rabbit serum to looped/cyclic peptides of protein N of SARS-CoV Urbani (Rabbit serum looped peptides): unit not given here
[2] = tested on: control sera (pooled serum of ten healthy LUMC hospital workers; commercial negative donor pooled serum from the Dutch bloodbank); type: binding, human; design: Binding of Control serum LUMC to linear peptides / Binding of Control serum Blood-bank to linear peptides / Binding of Control serum LUMC to looped peptides / Binding of Control Serum Blood-Bank to Looped peptides / Binding of Control serum LUMC to linear peptides of the protein M of SARS-CoV Urbani / Binding of Control serum Blood-bank to linear peptides of the protein M of SARS-CoV Urbani / Binding of Control serum LUMC to looped peptides of the protein M of SARS-CoV Urbani / Binding of Control Serum Blood-Bank to Looped peptides of the protein M of SARS-CoV Urbani: unit not given here

Sequence: ADNGTITVEELKQLL
- Recognition of the peptide by the rabbit serum [1]: recognized
- Binding of Control Serum Blood-Bank to Looped peptides of the protein M of SARS-CoV Urbani [2]: 0.5
- Binding of Control serum Blood-bank to linear peptides of the protein M of SARS-CoV Urbani [2]: 0.7
- Binding of Control serum LUMC to linear peptides of the protein M of SARS-CoV Urbani [2]: 0.5
- Binding of Control serum LUMC to looped peptides of the protein M of SARS-CoV Urbani [2]: 0.7

Sequence: AMDPIYDEPTTTTSV
- Binding of a rabbit serum to linear peptides [1]: 0.1
- Binding of a rabbit serum to looped peptides [1]: 0.4
- Binding of Control Serum Blood-Bank to Looped peptides [2]: 0.7
- Binding of Control serum Blood-bank to linear peptides [2]: 0.8
- Binding of Control serum LUMC to linear peptides [2]: 0.6
- Binding of Control serum LUMC to looped peptides [2]: 0.7

Sequence: ANPAMDPIYDEPTTT
- Binding of a rabbit serum to linear peptides [1]: 0.1
- Binding of a rabbit serum to looped peptides [1]: 0.4
- Binding of Control Serum Blood-Bank to Looped peptides [2]: 0.4
- Binding of Control serum Blood-bank to linear peptides [2]: 0.4
- Binding of Control serum LUMC to linear peptides [2]: 0.3
- Binding of Control serum LUMC to looped peptides [2]: 0.4

Sequence: ASQRVGTDSGFAAYN
- Rabbit serum linear peptides [1]: 0.4
- Rabbit serum looped peptides [1]: 0.1
- Binding of Control Serum Blood-Bank to Looped peptides of the protein M of SARS-CoV Urbani [2]: 0.7
- Binding of Control serum Blood-bank to linear peptides of the protein M of SARS-CoV Urbani [2]: 0.8
- Binding of Control serum LUMC to linear peptides of the protein M of SARS-CoV Urbani [2]: 0.5
- Binding of Control serum LUMC to looped peptides of the protein M of SARS-CoV Urbani [2]: 0.8

Sequence: AYCCNIVNVSLVKPT
- Binding of a rabbit serum to linear peptides [1]: 0.3
- Binding of a rabbit serum to looped peptides [1]: 0.2
- Binding of Control Serum Blood-Bank to Looped peptides [2]: 0.9
- Binding of Control serum Blood-bank to linear peptides [2]: 0.9
- Binding of Control serum LUMC to linear peptides [2]: 0.9
- Binding of Control serum LUMC to looped peptides [2]: 0.8

Sequence: CVRGTTVLLKEPCPS
- Rabbit serum linear peptides [1]: 0.5
- Rabbit serum looped peptides [1]: 0.5
- Binding of Control Serum Blood-Bank to Looped peptides [2]: 0.9
- Binding of Control serum Blood-bank to linear peptides [2]: 0.8
- Binding of Control serum LUMC to linear peptides [2]: 0.7
- Binding of Control serum LUMC to looped peptides [2]: 0.9

Sequence: DANYFVCWHTHNYDY
- Binding of a rabbit serum to linear peptides [1]: 0.1
- Binding of a rabbit serum to looped peptides [1]: 0.5
- Binding of Control Serum Blood-Bank to Looped peptides [2]: 0.5
- Binding of Control serum Blood-bank to linear peptides [2]: 0.8
- Binding of Control serum LUMC to linear peptides [2]: 0.8
- Binding of Control serum LUMC to looped peptides [2]: 1.0

Sequence: DGISTPKLKEDYQIG
- Binding of a rabbit serum to linear peptides [1]: 0.1
- Binding of a rabbit serum to looped peptides [1]: 0.4
- Binding of Control Serum Blood-Bank to Looped peptides [2]: 0.3
- Binding of Control serum Blood-bank to linear peptides [2]: 0.5
- Binding of Control serum LUMC to linear peptides [2]: 0.6
- Binding of Control serum LUMC to looped peptides [2]: 0.3

Sequence: DNGTITVEELKQLLE
- Recognition of the peptide by the rabbit serum [1]: recognized
- Binding of Control Serum Blood-Bank to Looped peptides of the protein M of SARS-CoV Urbani [2]: 0.4
- Binding of Control serum Blood-bank to linear peptides of the protein M of SARS-CoV Urbani [2]: 0.7
- Binding of Control serum LUMC to linear peptides of the protein M of SARS-CoV Urbani [2]: 0.8
- Binding of Control serum LUMC to looped peptides of the protein M of SARS-CoV Urbani [2]: 0.7

Sequence: DNKFALTCTSTHFAF
- Rabbit serum linear peptides [1]: 0.7
- Rabbit serum looped peptides [1]: 0.6
- Binding of Control Serum Blood-Bank to Looped peptides [2]: 0.6
- Binding of Control serum Blood-bank to linear peptides [2]: 0.7
- Binding of Control serum LUMC to linear peptides [2]: 0.6
- Binding of Control serum LUMC to looped peptides [2]: 0.8

Sequence: DPIYDEPTTTTSVPL
- Binding of a rabbit serum to linear peptides [1]: 0.1
- Binding of a rabbit serum to looped peptides [1]: 0.5
- Binding of Control Serum Blood-Bank to Looped peptides [2]: 0.8
- Binding of Control serum Blood-bank to linear peptides [2]: 0.5
- Binding of Control serum LUMC to linear peptides [2]: 0.5
- Binding of Control serum LUMC to looped peptides [2]: 0.7

Sequence: DRHSGVKDYVVVHGY
- Binding of a rabbit serum to linear peptides [1]: 0.1
- Binding of a rabbit serum to looped peptides [1]: 0.5
- Binding of Control Serum Blood-Bank to Looped peptides [2]: 0.6
- Binding of Control serum Blood-bank to linear peptides [2]: 0.7
- Binding of Control serum LUMC to linear peptides [2]: 0.7
- Binding of Control serum LUMC to looped peptides [2]: 0.4

Sequence: DYCIPYNSVTDTIVV
- Binding of a rabbit serum to linear peptides [1]: 0.1
- Binding of a rabbit serum to looped peptides [1]: 0.5
- Binding of Control Serum Blood-Bank to Looped peptides [2]: 0.7
- Binding of Control serum Blood-bank to linear peptides [2]: 0.7
- Binding of Control serum LUMC to linear peptides [2]: 0.6
- Binding of Control serum LUMC to looped peptides [2]: 0.9

Sequence: ECVRGTTVLLKEPCP
- Rabbit serum linear peptides [1]: 0.6
- Rabbit serum looped peptides [1]: 0.4
- Binding of Control Serum Blood-Bank to Looped peptides [2]: 0.9
- Binding of Control serum Blood-bank to linear peptides [2]: 0.9
- Binding of Control serum LUMC to linear peptides [2]: 0.7
- Binding of Control serum LUMC to looped peptides [2]: 0.8

Sequence: EGHQTAAFRDVLVVL
- Rabbit serum linear peptides [1]: 0.3
- Rabbit serum looped peptides [1]: 0.6
- Binding of Control Serum Blood-Bank to Looped peptides [2]: 0.9
- Binding of Control serum Blood-bank to linear peptides [2]: 0.7
- Binding of Control serum LUMC to linear peptides [2]: 0.9
- Binding of Control serum LUMC to looped peptides [2]: 1.6

Sequence: EILIIIMRTFRIAIW
- Rabbit serum linear peptides [1]: 0.5
- Rabbit serum looped peptides [1]: 0.3
- Binding of Control Serum Blood-Bank to Looped peptides of the protein X3 of SARS-CoV Urbani [2]: 0.6
- Binding of Control serum Blood-bank to linear peptides of the protein X3 of SARS-CoV Urbani [2]: 0.8
- Binding of Control serum LUMC to linear peptides of the protein X3 of SARS-CoV Urbani [2]: 0.5
- Binding of Control serum LUMC to looped peptides of the protein X3 of SARS-CoV Urbani [2]: 0.6

Sequence: ELYHYQECVRGTTVL
- Rabbit serum linear peptides [1]: 0.7
- Rabbit serum looped peptides [1]: 0.7
- Binding of Control Serum Blood-Bank to Looped peptides [2]: 0.7
- Binding of Control serum Blood-bank to linear peptides [2]: 0.7
- Binding of Control serum LUMC to linear peptides [2]: 0.6
- Binding of Control serum LUMC to looped peptides [2]: 0.7

Sequence: FFIFNKLVKDPPNVQ
- Binding of a rabbit serum to linear peptides [1]: 0.1
- Binding of a rabbit serum to looped peptides [1]: 0.5
- Binding of Control Serum Blood-Bank to Looped peptides [2]: 0.5
- Binding of Control serum Blood-bank to linear peptides [2]: 0.6
- Binding of Control serum LUMC to linear peptides [2]: 0.7
- Binding of Control serum LUMC to looped peptides [2]: 0.6

Sequence: FIFNKLVKDPPNVQI
- Binding of a rabbit serum to linear peptides [1]: 0.1
- Binding of a rabbit serum to looped peptides [1]: 0.7
- Binding of Control Serum Blood-Bank to Looped peptides [2]: 0.8
- Binding of Control serum Blood-bank to linear peptides [2]: 0.8
- Binding of Control serum LUMC to linear peptides [2]: 0.8
- Binding of Control serum LUMC to looped peptides [2]: 0.7

Sequence: FKPLTKKNYSELDDE
- Rabbit serum linear peptides [1]: 0.5
- Rabbit serum looped peptides [1]: 0.5
- Binding of Control Serum Blood-Bank to Looped peptides of the protein X3 of SARS-CoV Urbani [2]: 0.8
- Binding of Control serum Blood-bank to linear peptides of the protein X3 of SARS-CoV Urbani [2]: 0.8
- Binding of Control serum LUMC to linear peptides of the protein X3 of SARS-CoV Urbani [2]: 0.8
- Binding of Control serum LUMC to looped peptides of the protein X3 of SARS-CoV Urbani [2]: 0.8

Sequence: FQHQNSKKTTKLVVI
- Recognition of the peptide by the rabbit serum [1]: recognized
- Binding of Control Serum Blood-Bank to Looped peptides [2]: 0.4
- Binding of Control serum Blood-bank to linear peptides [2]: 0.5
- Binding of Control serum LUMC to linear peptides [2]: 0.7
- Binding of Control serum LUMC to looped peptides [2]: 0.5

Sequence: FTLGSITAQPVKIDN
- Binding of a rabbit serum to linear peptides [1]: 0.7
- Binding of a rabbit serum to looped peptides [1]: 0.8
- Binding of Control Serum Blood-Bank to Looped peptides [2]: 1.6
- Binding of Control serum Blood-bank to linear peptides [2]: 0.5
- Binding of Control serum LUMC to linear peptides [2]: 0.6
- Binding of Control serum LUMC to looped peptides [2]: 1.2

Sequence: FVCWHTHNYDYCIPY
- Binding of a rabbit serum to linear peptides [1]: 0.1
- Binding of a rabbit serum to looped peptides [1]: 0.7
- Binding of Control Serum Blood-Bank to Looped peptides [2]: 0.5
- Binding of Control serum Blood-bank to linear peptides [2]: 0.6
- Binding of Control serum LUMC to linear peptides [2]: 0.7
- Binding of Control serum LUMC to looped peptides [2]: 0.6

Sequence: GASQRVGTDSGFAAY
- Rabbit serum linear peptides [1]: 0.1
- Rabbit serum looped peptides [1]: 0.1
- Binding of Control Serum Blood-Bank to Looped peptides of the protein M of SARS-CoV Urbani [2]: 0.7
- Binding of Control serum Blood-bank to linear peptides of the protein M of SARS-CoV Urbani [2]: 0.9
- Binding of Control serum LUMC to linear peptides of the protein M of SARS-CoV Urbani [2]: 0.9
- Binding of Control serum LUMC to looped peptides of the protein M of SARS-CoV Urbani [2]: 0.7

Sequence: GGYSEDRHSGVKDYV
- Binding of a rabbit serum to linear peptides [1]: 0.1
- Binding of a rabbit serum to looped peptides [1]: 0.2
- Binding of Control Serum Blood-Bank to Looped peptides [2]: 0.4
- Binding of Control serum Blood-bank to linear peptides [2]: 0.6
- Binding of Control serum LUMC to linear peptides [2]: 0.4
- Binding of Control serum LUMC to looped peptides [2]: 0.5
